Reference: patent publication US20080069785A1, “PEST-CONTROL COMPOSITIONS, AND METHODS AND PRODUCTS UTILIZING SAME” (priority 2004, published 2008)

System: cockroaches (Blattella germanica)
Assay: Weeklong surface area toxicity test on cockroaches (Example 19)
Type: in vivo
Conditions: for cockroaches alive (of five): 0-1 days; for cockroaches alive (of five per cup): 3-4 days treatment
Protocol: In order determine the toxicity of the formulation to the insect after application to a surface over a period of time, the following test was performed. […] Cockroaches were placed in the cups on the first day following the application of the formulations, on the third day following the application of the formulations, and on the sixth day following the application of the formulations in order to monitor the toxicity of the formulations after a period of time had elapsed. The mortality of the cockroaches was then recorded at the time intervals noted. The five cockroaches placed in each cup were one week old cockroaches (Blattella germanica) which had been reared at twenty seven degrees centigrade, at sixty five percent relative humidity, and on a twelve hour light to dark photoperiod. Each of the cups had Fluon®AD1 treated sides to prevent the escape of the cockroaches.

Q: How did the “cockroaches alive (of five)” value (0.02 μL/cm^2 (1 μL), 5 min) turn out when `CCCCCCCCCC(C)=O` [Undecanone, 2-Undecanone] was run?
A: 5

Q: And the “cockroaches alive (of five)” value (0.02 μL/cm^2 (1 μL), 10 min)?
A: 5

Q: What about the “cockroaches alive (of five)” value (0.02 μL/cm^2 (1 μL), 15 min) of the same compound?
A: 5

Q: And the “cockroaches alive (of five)” value (0.02 μL/cm^2 (1 μL), 30 min)?
A: 5

Q: And the “cockroaches alive (of five)” value (0.02 μL/cm^2 (1 μL), 60 min)?
A: 5

Q: What about the “cockroaches alive (of five)” value (0.02 μL/cm^2 (1 μL), 90 min) of the same compound?
A: 5

Q: And the “cockroaches alive (of five)” value (0.02 μL/cm^2 (1 μL), 2 h)?
A: 5

Q: What about the “cockroaches alive (of five)” value (0.02 μL/cm^2 (1 μL), 4 h) of the same compound?
A: 5

Q: And the “cockroaches alive (of five)” value (0.02 μL/cm^2 (1 μL), 17.5 h)?
A: 5

Q: And the “cockroaches alive (of five)” value (0.02 μL/cm^2 (1 μL), 18 h)?
A: 5

Q: What about the “cockroaches alive (of five)” value (0.02 μL/cm^2 (1 μL), 21 h) of the same compound?
A: 5

Q: What about the “cockroaches alive (of five)” value (0.02 μL/cm^2 (1 μL), 24 h) of the same compound?
A: 5

Q: And the “cockroaches alive (of five)” value (0.02 μL/cm^2 (1 μL), 27.5 h)?
A: 5

Q: What about the “cockroaches alive (of five)” value (0.02 μL/cm^2 (1 μL), 29 h) of the same compound?
A: 5

Q: And the “cockroaches alive (of five)” value (0.02 μL/cm^2 (1 μL), 30 h)?
A: 5

Q: And the “cockroaches alive (of five)” value (0.09 μL/cm^2 (5 μL), 5 min)?
A: 5

Q: And the “cockroaches alive (of five)” value (0.09 μL/cm^2 (5 μL), 10 min)?
A: 5

Q: What about the “cockroaches alive (of five)” value (0.09 μL/cm^2 (5 μL), 15 min) of the same compound?
A: 4

Q: What about the “cockroaches alive (of five)” value (0.09 μL/cm^2 (5 μL), 30 min) of the same compound?
A: 4

Q: What about the “cockroaches alive (of five)” value (0.09 μL/cm^2 (5 μL), 60 min) of the same compound?
A: 4

Q: What about the “cockroaches alive (of five)” value (0.09 μL/cm^2 (5 μL), 90 min) of the same compound?
A: 4

Q: What about the “cockroaches alive (of five)” value (0.09 μL/cm^2 (5 μL), 2 h) of the same compound?
A: 4

Q: And the “cockroaches alive (of five)” value (0.09 μL/cm^2 (5 μL), 4 h)?
A: 4

Q: And the “cockroaches alive (of five)” value (0.09 μL/cm^2 (5 μL), 17.5 h)?
A: 4

Q: What about the “cockroaches alive (of five)” value (0.09 μL/cm^2 (5 μL), 18 h) of the same compound?
A: 4

Q: And the “cockroaches alive (of five)” value (0.09 μL/cm^2 (5 μL), 21 h)?
A: 4

Q: And the “cockroaches alive (of five)” value (0.09 μL/cm^2 (5 μL), 24 h)?
A: 4

Q: And the “cockroaches alive (of five)” value (0.09 μL/cm^2 (5 μL), 27.5 h)?
A: 3

Q: And the “cockroaches alive (of five)” value (0.09 μL/cm^2 (5 μL), 29 h)?
A: 3

Q: And the “cockroaches alive (of five)” value (0.09 μL/cm^2 (5 μL), 30 h)?
A: 3

Q: What about the “cockroaches alive (of five)” value (0.19 μL/cm^2 (10 μL), 5 min) of the same compound?
A: 5

Q: And the “cockroaches alive (of five)” value (0.19 μL/cm^2 (10 μL), 10 min)?
A: 5

Q: And the “cockroaches alive (of five)” value (0.19 μL/cm^2 (10 μL), 15 min)?
A: 5

Q: What about the “cockroaches alive (of five)” value (0.19 μL/cm^2 (10 μL), 30 min) of the same compound?
A: 2

Q: What about the “cockroaches alive (of five)” value (0.19 μL/cm^2 (10 μL), 60 min) of the same compound?
A: 0

Q: And the “cockroaches alive (of five)” value (0.19 μL/cm^2 (10 μL), 90 min)?
A: 0

Q: And the “cockroaches alive (of five)” value (0.19 μL/cm^2 (10 μL), 2 h)?
A: 0

Q: What about the “cockroaches alive (of five)” value (0.19 μL/cm^2 (10 μL), 4 h) of the same compound?
A: 0

Q: What about the “cockroaches alive (of five)” value (0.19 μL/cm^2 (10 μL), 17.5 h) of the same compound?
A: 0

Q: And the “cockroaches alive (of five)” value (0.19 μL/cm^2 (10 μL), 18 h)?
A: 0

Q: And the “cockroaches alive (of five)” value (0.19 μL/cm^2 (10 μL), 21 h)?
A: 0

Q: What about the “cockroaches alive (of five)” value (0.19 μL/cm^2 (10 μL), 24 h) of the same compound?
A: 0

Q: What about the “cockroaches alive (of five)” value (0.19 μL/cm^2 (10 μL), 27.5 h) of the same compound?
A: 0

Q: What about the “cockroaches alive (of five)” value (0.19 μL/cm^2 (10 μL), 29 h) of the same compound?
A: 0

Q: And the “cockroaches alive (of five)” value (0.19 μL/cm^2 (10 μL), 30 h)?
A: 0

Q: What about the “cockroaches alive (of five)” value (0.95 μL/cm^2 (50 μL), 5 min) of the same compound?
A: 0

Q: And the “cockroaches alive (of five)” value (0.95 μL/cm^2 (50 μL), 10 min)?
A: 0

Q: And the “cockroaches alive (of five)” value (0.95 μL/cm^2 (50 μL), 15 min)?
A: 0

Q: What about the “cockroaches alive (of five)” value (0.95 μL/cm^2 (50 μL), 30 min) of the same compound?
A: 0

Q: And the “cockroaches alive (of five)” value (0.95 μL/cm^2 (50 μL), 60 min)?
A: 0

Q: What about the “cockroaches alive (of five)” value (0.95 μL/cm^2 (50 μL), 90 min) of the same compound?
A: 0

Q: And the “cockroaches alive (of five)” value (0.95 μL/cm^2 (50 μL), 2 h)?
A: 0

Q: And the “cockroaches alive (of five)” value (0.95 μL/cm^2 (50 μL), 4 h)?
A: 0

Q: What about the “cockroaches alive (of five)” value (0.95 μL/cm^2 (50 μL), 17.5 h) of the same compound?
A: 0

Q: And the “cockroaches alive (of five)” value (0.95 μL/cm^2 (50 μL), 18 h)?
A: 0

Q: What about the “cockroaches alive (of five)” value (0.95 μL/cm^2 (50 μL), 21 h) of the same compound?
A: 0

Q: What about the “cockroaches alive (of five)” value (0.95 μL/cm^2 (50 μL), 24 h) of the same compound?
A: 0

Q: What about the “cockroaches alive (of five)” value (0.95 μL/cm^2 (50 μL), 27.5 h) of the same compound?
A: 0

Q: What about the “cockroaches alive (of five)” value (0.95 μL/cm^2 (50 μL), 29 h) of the same compound?
A: 0

Q: What about the “cockroaches alive (of five)” value (0.95 μL/cm^2 (50 μL), 30 h) of the same compound?
A: 0

Q: What about the “cockroaches alive (of five per cup)” value (0.02 μL/cm^2 (1 μL), 5 min) of the same compound?
A: 5

Q: And the “cockroaches alive (of five per cup)” value (0.02 μL/cm^2 (1 μL), 10 min)?
A: 5

Q: What about the “cockroaches alive (of five per cup)” value (0.02 μL/cm^2 (1 μL), 15 min) of the same compound?
A: 5

Q: What about the “cockroaches alive (of five per cup)” value (0.02 μL/cm^2 (1 μL), 30 min) of the same compound?
A: 5

Q: And the “cockroaches alive (of five per cup)” value (0.02 μL/cm^2 (1 μL), 60 min)?
A: 5

Q: What about the “cockroaches alive (of five per cup)” value (0.02 μL/cm^2 (1 μL), 90 min) of the same compound?
A: 5

Q: What about the “cockroaches alive (of five per cup)” value (0.02 μL/cm^2 (1 μL), 2 h) of the same compound?
A: 5

Q: What about the “cockroaches alive (of five per cup)” value (0.02 μL/cm^2 (1 μL), 4 h) of the same compound?
A: 5

Q: What about the “cockroaches alive (of five per cup)” value (0.02 μL/cm^2 (1 μL), 23 h) of the same compound?
A: 5

Q: What about the “cockroaches alive (of five per cup)” value (0.02 μL/cm^2 (1 μL), 24 h) of the same compound?
A: 5

Q: And the “cockroaches alive (of five per cup)” value (0.02 μL/cm^2 (1 μL), 27 h)?
A: 5

Q: What about the “cockroaches alive (of five per cup)” value (0.02 μL/cm^2 (1 μL), 30 h) of the same compound?
A: 5

Q: And the “cockroaches alive (of five per cup)” value (0.09 μL/cm^2 (5 μL), 5 min)?
A: 5

Q: What about the “cockroaches alive (of five per cup)” value (0.09 μL/cm^2 (5 μL), 10 min) of the same compound?
A: 5

Q: And the “cockroaches alive (of five per cup)” value (0.09 μL/cm^2 (5 μL), 15 min)?
A: 5

Q: What about the “cockroaches alive (of five per cup)” value (0.09 μL/cm^2 (5 μL), 30 min) of the same compound?
A: 5

Q: And the “cockroaches alive (of five per cup)” value (0.09 μL/cm^2 (5 μL), 60 min)?
A: 5

Q: What about the “cockroaches alive (of five per cup)” value (0.09 μL/cm^2 (5 μL), 90 min) of the same compound?
A: 5

Q: And the “cockroaches alive (of five per cup)” value (0.09 μL/cm^2 (5 μL), 2 h)?
A: 5

Q: And the “cockroaches alive (of five per cup)” value (0.09 μL/cm^2 (5 μL), 4 h)?
A: 5
